Target: C5a anaphylatoxin chemotactic receptor 1 (Homo sapiens) (UniProt P21730)
Test: Potency as the maximal lysosomal myeloperoxidase (MPO) release in PMNL assay

Sequence of C5a anaphylatoxin chemotactic receptor 1 (Homo sapiens) (P21730 whole entry, looked up): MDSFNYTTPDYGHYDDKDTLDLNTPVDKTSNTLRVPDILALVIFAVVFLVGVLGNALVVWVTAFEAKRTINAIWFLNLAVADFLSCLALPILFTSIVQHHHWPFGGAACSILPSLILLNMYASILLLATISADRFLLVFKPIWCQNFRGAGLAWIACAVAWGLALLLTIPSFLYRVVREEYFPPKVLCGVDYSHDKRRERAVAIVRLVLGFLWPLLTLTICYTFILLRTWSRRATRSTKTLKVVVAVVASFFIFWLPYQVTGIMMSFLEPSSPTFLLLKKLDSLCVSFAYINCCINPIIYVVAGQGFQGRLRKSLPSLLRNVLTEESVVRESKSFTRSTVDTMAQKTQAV

| Molecule | EC50 [µM] |
| --- | --- |
| CSCC[C@H](NC(=O)[C@H](CC(=O)O)NC(=O)[C@H](CCCCN)NC(=O)[C@@H](N)Cc1cccs1)C(=O)N[C@@H](CCC(N)=O)C(=O)N[C@@H](CC(C)C)C(=O)NCC(=O)N[C@@H](CCCNC(=N)N)C(=O)O | 200 |
| Ac-FKDMQLGR-OH | 35 |
| H-LRANISFKDMQLGR-OH | 60 |
